pIC50: −log10 of the molar value. Like-named read-outs stand apart in the source and are kept apart here.
Tests used:
[1] = test system: SK-BR-3 tumor cells; assay: In vitro proliferation inhibitory activity of compounds of Formula (GH) on SK-BR-3 tumor cells (CCK8); assay type: cell-based; settings: Homo sapiens, SK-BR-3, 72 h, 3 days of culture, read-out: IC50 for inhibiting proliferation of SK-BR-3 cells in vitro
Description: The objective of this experiment is to detect the in vitro killing activity of the compound of Formula (GH) of the present disclosure on SK-BR-3 tumor cells (human breast cancer cells, Wuhan Procell, Catalog No. CL-0211). The cells were treated with different concentrations of the compound in vitro. After 3 days of culture, the number of viable cells was detected using CCK8 (Cell Counting Kit-8, Catalog No. TS547) reagents, and the in vitro activity of the test compound was evaluated according to the IC50 value.
Taking the test method of in vitro killing activity on SK-BR-3 cells as an example, the following test was performed. […] After the cells were completely digested, 10 mL of cell culture medium containing 2% FBS was added to wash out the digested cells, centrifugation was performed at 300 g for 5 min, the supernatant was discarded, and then 10 to 20 mL of cell culture medium containing 2% FBS was added to resuspend the cells to prepare a single cell suspension. • (3) Cell plating: The SK-BR-3 single cell suspension was mixed well, the viable cell density was adjusted to 6×10^4 cells/mL with the cell culture medium containing 2% FBS, the cell suspension after density adjustment was mixed well, and added to a 96-well cell culture plate at 100 μL/well. Only 200 μL of PBS was added to the peripheral wells of the 96-well plate. The culture plate was incubated in an incubator for 24 hours (37° C., 5% CO2). • (4) Compound preparation: The compound was dissolved in DMSO (dimethyl sulfoxide, SIGMA) to prepare a 2 mM stock solution.
The starting concentrations of small molecule compounds and Dxd were both 600 nM, and the preparation method was as follows.
Then, 315 μL of different samples to be tested were added to the first column of a 96-well U-bottomed drug distribution plate, and the sample concentration was 1200 nM; 210 μL of the cell culture medium containing 2% FBS was added to each well of the second to tenth columns. 105 μL of the sample was taken from the first column and added to the 210 μL cell culture medium in the second column and mixed well, and 105 μL was taken and added to the third column, and so on to the tenth column. • (5) Sample loading operation: 100 μL of the sample to be tested of different concentrations was added to the culture plate, and two replicate wells were set for each sample. The culture plate was incubated in an incubator for 3 days (37° C., 5% CO2). • (6) Color development operation: The 96-well cell culture plate was taken out, the cell culture supernatant was removed by tapping, 100 μL of the RPMI 1640 basal medium (without FBS) containing 10% CCK8 was added, and then it was incubated in an incubator for about 1.5 hours (37° C., 5% CO2). • (7) Plate reading operation: The 96-well cell culture plate was taken out, placed in an ELISA reader (MD SpectraMax i3X), and A450 was determined by the ELISA reader. • (8) Data analysis: Microsoft Excel and Graphpad Prism 5 were used to process and analyze the data.

[2] = test system: NCI-N87 tumor cells; assay: In vitro proliferation inhibitory activity of compounds of Formula (GH) on NCI-N87 tumor cells (CCK8); assay type: cell-based, human; settings: 6 days of culture, CCK8, read-out: IC50 for inhibiting proliferation of NCI-N87 cells in vitro
Description: The objective of this experiment is to detect the in vitro killing activity of the compound of Formula (GH) disclosed in the present invention on NCI-N87 tumor cells (human gastric cancer cells, Cell Resource Center, Institute of Basic Medicine, Chinese Academy of Medical Sciences, Catalog No. 3111C0001CCC000481). The cells were treated with different concentrations of the compound in vitro, and after 6 days of culture, the number of viable cells was detected using CCK8 (Cell Counting Kit-8, Catalog No. TS547) reagents, and the in vitro activity of the test compound was evaluated according to the IC50 value.
• (1) Cell culture: NCI-N87 cells were cultured in the RPMI 1640 medium containing 2% FBS (Shanghai BasalMedia Technologies Co., Ltd., Catalog No. L210KJ). • (2) Cell preparation: NCI-N87 cells in the logarithmic growth phase were taken, washed once with PBS (phosphate buffered saline, Shanghai BasalMedia Technologies Co., Ltd., Catalog No. E211004), added with 1 mL of trypsin (0.25% Trypsin-EDTA (1×), Shanghai BasalMedia Technologies Co., Ltd., Catalog No. A121002) to allow digestion for 2 to 3 minutes. After the cells were completely digested, 10 mL of the cell culture medium was added to wash off and obtain the digested cells, centrifugation was performed at 300 times gravitational acceleration (g) for 5 min, the supernatant was discarded, then 10 mL of PBS was added to wash the cells once, centrifugation was performed at 300 times gravitational acceleration (g) for 5 minutes, the supernatant was discarded, and 10 mL of the cell culture medium containing 2% FBS was added to resuspend the cells to prepare a single cell suspension. • (3) Cell plating: The NCI-N87 single cell suspension was mixed, the density of live cells was adjusted to 3×10^4 cells/mL with 2% FBS cell culture medium, the cell suspension after density adjustment was mixed well, and added to a 96-well cell culture plate at 100 μL/well. Only 200 μL of PBS was added to each of the peripheral wells of the 96-well plate. The plate was incubated in an incubator for 24 hours (37° C., 5% CO2). • (4) Preparation of sample to be tested:
The sample to be tested was diluted to 3200 nM with cell culture medium containing 2% FBS, then 300 μL of the sample was added to the first well of a 96-well U-bottomed plate with a sample concentration of 3200 nM; and 210 μL of cell culture medium containing 2% FBS was added to each well of the second to tenth columns. 70 μL of the sample was taken from the first column and added to the 210 μL cell culture medium in the second column and mixed well, 70 μL was taken and added to the third column, and so on to the ninth column. • (5) Sample loading operation: 100 μL of the sample to be tested with different concentrations was added to the culture plate, two replicate wells were set for each sample. The culture plate was incubated in an incubator for 6 days (37° C., 5% CO2). • (6) Color development operation: The 96-well cell culture plate was taken out, the supernatant of the culture medium was removed by tapping, 100 μL of 10% CCK8 (prepared with RPMI 1640 basal culture medium, without FBS) solution was added to each well, and incubation was performed in an incubator for 2 hours. • (7) Plate reading operation: The 96-well cell culture plate was taken out, placed in an ELISA reader (SpectraMax i3X), and A450 was determined by the ELISA reader. • (8) Data analysis: Microsoft Excel and Graphpad Prism 5 were used to process and analyze the data.

| Compound | pIC50 [1] | pIC50 ([2]; Homo sapiens, NCI-N87) | pIC50 [2] |
| --- | --- | --- | --- |
| Cc1c(F)cc2nc3c(c4c2c1CC[C@H]4NC(=O)CO)Cn1c-3cc2c(c1=O)COC(=O)[C@]2(O)CC1CC1 [Compound 1-A, N-((1R,9S)-9-(cyclopropylmethyl)-5-fluoro-9-hydroxy-4-methyl-10,13-dioxo-2,3,9,10,13,15-hexahydro-1H,12H-benzo[de]pyrano[3′,4′:6,7]indolizino[1,2-b]quinolin-1-yl)-2-hydroxyacetamide] | 9.03 | – | – |
| Cc1c(F)cc2nc3c(c4c2c1CC[C@@H]4NC(=O)CO)Cn1c-3cc2c(c1=O)COC(=O)[C@]2(O)CC1CC1 [Compound 1-B, N-((1S,9S)-9-(cyclopropylmethyl)-5-fluoro-9-hydroxy-4-methyl-10,13-dioxo-2,3,9,10,13,15-hexahydro-1H,12H-benzo[de]pyrano[3′,4′:6,7]indolizino[1,2-b]quinolin-1-yl)-2-hydroxyacetamide] | 8.71 | 8.27 | – |
| Cc1c(F)cc2nc3c(c4c2c1CC[C@@H]4NC(=O)[C@H](C)O)Cn1c-3cc2c(c1=O)COC(=O)[C@]2(O)CC1CC1 [Compound 2-A, (S)-N-((1S,9S)-9-(Cyclopropylmethyl)-5-fluoro-9-hydroxy-4-methyl-10,13-dioxo-2,3,9,10,13,15-hexahydro-1H,12H-benzo[de]pyrano[3′,4′:6,7]indolizino[1,2-b]quinolin-1-yl)-2-hydroxypropanamide] | 8.23 | 8.72 | – |
| Cc1c(F)cc2nc3c(c4c2c1CC[C@H]4NC(=O)[C@H](C)O)Cn1c-3cc2c(c1=O)COC(=O)[C@]2(O)CC1CC1 [Compound 2-B, (S)-N-((1R,9S)-9-(Cyclopropylmethyl)-5-fluoro-9-hydroxy-4-methyl-10,13-dioxo-2,3,9,10,13,15-hexahydro-1H,12H-benzo[de]pyrano[3′,4′:6,7]indolizino[1,2-b]quinolin-1-yl)-2-hydroxypropanamide] | 7.92 | – | – |
| Cc1c(F)cc2nc3c(c4c2c1CC[C@@H]4NC(=O)[C@@H](C)O)Cn1c-3cc2c(c1=O)COC(=O)[C@]2(O)CC1CC1 [Compound 3-A, (R)-N-((1S,9S)-9-(cyclopropylmethyl)-5-fluoro-9-hydroxy-4-methyl-10,13-dioxo-2,3,9,10,13,15-hexahydro-1H,12H-benzo[de]pyrano[3′,4′:6,7]indolizino[1,2-b]quinolin-1-yl)-2-hydroxypropanamide] | 8.23 | 8.28 | – |
| Cc1c(F)cc2nc3c(c4c2c1CC[C@H]4NC(=O)[C@@H](C)O)Cn1c-3cc2c(c1=O)COC(=O)[C@]2(O)CC1CC1 [Compound 3-B, (R)-N-((1R,9S)-9-(cyclopropylmethyl)-5-fluoro-9-hydroxy-4-methyl-10,13-dioxo-2,3,9,10,13,15-hexahydro-1H,12H-benzo[de]pyrano[3′,4′:6,7]indolizino[1,2-b]quinolin-1-yl)-2-hydroxypropanamide] | 8.63 | – | – |
| Cc1c(F)cc2nc3c(c4c2c1CC[C@H]4NC(=O)[C@@H](O)C1CC1)Cn1c-3cc2c(c1=O)COC(=O)[C@]2(O)CC1CC1 [Compound 4-B, (S)-2-cyclopropyl-N-((1R,9S)-9-(cyclopropylmethyl)-5-fluoro-9-hydroxy-4-methyl-10,13-dioxo-2,3,9,10,13,15-hexahydro-1H,12H-benzo[de]pyrano[3′,4′:6,7]indolizino[1,2-b]quinolin-1-yl)-2-hydroxyacetamide] | 8.30 | – | – |
| Cc1c(F)cc2nc3c(c4c2c1CC[C@@H]4NC(=O)[C@H](O)C1CC1)Cn1c-3cc2c(c1=O)COC(=O)[C@]2(O)CC1CC1 [Compound 5-A, (R)-2-Cyclopropyl-N-((1S,9S)-9-(cyclopropylmethyl)-5-fluoro-9-hydroxy-4-methyl-10,13-dioxo-2,3,9,10,13,15-hexahydro-1H,12H-benzo[de]pyrano[3′,4′:6,7]indolizino[1,2-b]quinolin-1-yl)-2-hydroxyacetamide] | 8.03 | – | – |
| CC[C@@]1(O)C(=O)OCc2c1cc1n(c2=O)Cc2c-1nc1cc(F)c3c(c1c2CNC(=O)CO)CCC3 [Compound 24, (S)-N-((8-ethyl-4-fluoro-8-hydroxy-9,12-dioxo-2,3,8,9,12,14-hexahydro-1H,11H-cyclopenta[f]pyrano[3′,4′:6,7]indolizino[1,2-b]quinolin-15-yl)methyl)-2-hydroxyacetamide] | 8.24 | – | – |
| CC[C@@]1(O)C(=O)OCc2c1cc1n(c2=O)Cc2c-1nc1cc(F)c3c(c1c2CNC(=O)[C@@H](C)O)CCC3 [Compound 26, (R)-N-(((S)-8-Ethyl-4-fluoro-8-hydroxy-9,12-dioxo-2,3,8,9,12,14-hexahydro-1H,11H-cyclopenta[f]pyrano[3′,4′:6,7]indolizino[1,2-b]quinolin-15-yl)methyl)-2-hydroxypropanamide] | 8.08 | – | – |
| CC[C@@]1(O)C(=O)OCc2c1cc1n(c2=O)Cc2c-1nc1cc(F)c3c(c1c2CNC(=O)[C@@H](O)C1CC1)CCC3 [Compound 27, (S)-2-Cyclopropyl-N-(((S)-8-ethyl-4-fluoro-8-hydroxy-9,12-dioxo-2,3,8,9,12,14-hexahydro-1H,11H-cyclopenta[f]pyrano[3′,4′:6,7]indolizino[1,2-b]quinolin-15-yl)methyl)-2-hydroxyacetamide] | 7.86 | – | – |
| CC[C@@]1(O)C(=O)OCc2c1cc1n(c2=O)Cc2c-1nc1cc(F)c3c(c1c2CNC(=O)[C@H](O)C1CC1)CCC3 [Compound 28, (R)-2-Cyclopropyl-N-(((S)-8-ethyl-4-fluoro-8-hydroxy-9,12-dioxo-2,3,8,9,12,14-hexahydro-1H,11H-cyclopenta[f]pyrano[3′,4′:6,7]indolizino[1,2-b]quinolin-15-yl)methyl)-2-hydroxyacetamide] | 7.82 | – | – |
| CC[C@@]1(O)C(=O)OCc2c1cc1n(c2=O)Cc2c-1nc1cc(F)c(C)c3c1c2[C@@H](NC(=O)CO)CC3 [Dxd, reference compound] | – | – | 7.99 |

Reference: patent publication US20260184721A2, “FUSED RING COMPOUND, CONJUGATE THEREOF AND USE THEREOF” (Keymed Biosciences (Chengdu) Co., Ltd., priority 2022, published 2026)
